Assay results published in US12569453B2, “Use of tapinarof for the treatment of atopic dermatitis” (Dermavant Sciences GmbH, priority 2018, dated 2026).

Legend:
[1] = test system: adolescent and adult subjects with AD; test: Phase II AD study: safety and tolerability; format: in vivo, human
Method: Safety was assessed by the monitoring and recording of all AEs and serious adverse events (SAEs); evaluation of local (application site) tolerability; monitoring of hematology (including peripheral blood immunophenotyping and immunoglobulins), clinical chemistry, and vital signs; and the performance of ECGs and physical examinations.

[2] = Phase II psoriasis study: plasma PK samples; format: in vivo, human; settings: of 860 samples from patients receiving an active dose
Method: Pharmacokinetics: Sparse PK sampling throughout the duration of the study was intended to be used to develop a population PK model and to estimate population PK parameters (i.e., apparent clearance [CL/F], apparent volume of distribution [V/F]) of systemic exposure, according to the Time and Events Table. Plasma analysis was performed under the management of Bioanalysis, Immunogenicity & Biomarkers, IVIVT, PTS, GSK.
The bioanalytical method used to support the study was a fully validated Liquid Chromatography-Tandem Mass Spectrometry (LC-MS/MS) method in accordance with FDA/EU/MHLW guidelines [US Department of Health and Human Services, Food and Drug Administration Draft Guidance for Industry: Bioanalytical Method Validation, 2013] [European Medicines Agency Guideline on Bioanalytical Method Validation, 2011] [Japanese Ministry of Health Guideline on Bioanalytical Method Validation in Pharmaceutical Development, 2013].

[3] = Japanese subjects, pooled active (n=30)
[4] = adolescent subjects, pooled active (n=49)
[5] = adult subjects, pooled active (n=116)
[6] = pooled active treatment groups (n=165)

Structure (SMILES): CC(C)c1c(O)cc(/C=C/c2ccccc2)cc1O [Tapinarof, 3,5-Dihydroxy-4-isopropyl-trans-stilbene]
- Impetigo ([1]; 0.5% BID): 0 n
- Serious TEAEs ([1]; 0.5% BID): 0 n
- atopic dermatitis leading to study treatment discontinuation ([1]; 0.5% BID): 7%
- subjects with abnormal clinically significant ECGs at any post-screening visit ([1]; 0.5% BID): 12%
- Nasopharyngitis ([1]; 0.5% BID, listed as GSK2894512): 4 n
- Impetigo ([1]; 0.5% QD): 0 n
- Serious TEAEs ([1]; 0.5% QD): 0 n
- atopic dermatitis leading to study treatment discontinuation ([1]; 0.5% QD): 2%
- subjects with abnormal clinically significant ECGs at any post-screening visit ([1]; 0.5% QD): 21%
- Nasopharyngitis ([1]; 0.5% QD, listed as GSK2894512): 1 n
- subjects with abnormal clinically significant ECGs at any post-screening visit ([1]; 1% BID): 30%
- Nasopharyngitis ([1]; 1% BID, listed as GSK2894512): 3 n
- Acne ([1]; 1% QD): 0 n
- Dermatitis atopic ([1]; 1% QD): 0 n
- Discontinuous due to TEAEs ([1]; 1% QD): 0 n
- Impetigo ([1]; 1% QD): 0 n
- Serious TEAEs ([1]; 1% QD): 0 n
- subjects with abnormal clinically significant ECGs at any post-screening visit ([1]; 1% QD): 24%
- Nasopharyngitis ([1]; 1% QD, listed as GSK2894512): 5 n
- subjects permanently discontinuing treatment due to TEAEs [1, 3]: 3%
- subjects with mild TEAEs [1, 3]: 50%
- subjects with moderate TEAEs [1, 3]: 10%
- subjects with treatment-related TEAEs [1, 3]: 17%
- atopic dermatitis AE, median duration ([1]; active treatment groups): 12.5 days
- atopic dermatitis AE, median time to onset ([1]; active treatment groups): 40.5 days
- headache, median duration ([1]; active treatment groups): 2 days
- headache, median time to onset ([1]; active treatment groups): 2 days
- nasopharyngitis, median duration ([1]; active treatment groups): 9 days
- nasopharyngitis, median time to onset ([1]; active treatment groups): 32 days
- upper respiratory tract infection, median duration ([1]; active treatment groups): 16.5 days
- upper respiratory tract infection, median time to onset ([1]; active treatment groups): 32.5 days
- subjects permanently discontinuing treatment due to TEAEs [1, 4]: 6%
- subjects with mild TEAEs [1, 4]: 41%
- subjects with moderate TEAEs [1, 4]: 14%
- subjects with severe TEAEs [1, 4]: 2%
- subjects with treatment-related TEAEs [1, 4]: 16%
- subjects permanently discontinuing treatment due to TEAEs [1, 5]: 3%
- subjects with mild TEAEs [1, 5]: 28%
- subjects with moderate TEAEs [1, 5]: 25%
- subjects with severe TEAEs [1, 5]: 3%
- subjects with treatment-related TEAEs [1, 5]: 14%
- folliculitis, median start date (since Day 1) ([1]; all cases in active treatment groups): 17 days
- subjects with elevations in liver chemistries (ALT/AST >2×ULN) ([1]; all in Tapinarof treatment groups): 6 subjects
- treatment-related atopic dermatitis ([1]; pooled active groups): 1%
- Acne ([1]; pooled active groups (n=165)): 4%
- Impetigo ([1]; pooled active groups (n=165)): 1%
- Nasopharyngitis ([1]; pooled active groups (n=165)): 8%
- atopic dermatitis (worsening/flare) ([1]; pooled active groups (n=165)): 4%
- atopic dermatitis leading to study treatment discontinuation ([1]; pooled active groups (n=165)): 2%
- folliculitis ([1]; pooled active groups (n=165)): 11%
- headache ([1]; pooled active groups (n=165)): 5%
- treatment-related application site pain ([1]; pooled active groups (n=165)): 1%
- treatment-related folliculitis ([1]; pooled active groups (n=165)): 5%
- upper respiratory tract infection ([1]; pooled active groups (n=165)): 7%
- subjects permanently discontinuing treatment due to TEAEs [1, 6]: 4%
- subjects with TEAEs [1, 6]: 56%
- subjects with mild TEAEs [1, 6]: 32%
- subjects with moderate TEAEs [1, 6]: 22%
- subjects with severe TEAEs [1, 6]: 2%
- subjects with treatment-related TEAEs [1, 6]: 15%
- subjects with TEAEs considered related to treatment ([1]; treatment groups pooled): 24 subjects
- subjects with at least one AE ([1]; treatment groups pooled): 97 subjects
- subjects with at least one TEAE ([1]; treatment groups pooled): 93 subjects
- plasma samples below the Lower Limit of Quantitation (LLQ) [2]: 649 samples
- plasma samples quantified [2]: 157 samples
